# Test results as given in the NIST ThermoML archive (doi:10.1016/j.tca.2006.05.019).
# Numbers after ± are expanded uncertainties.
# Details: 101.33 kPa, Crystal, Vacuum adiabatic calorimetry
compound,measurement,setting,value
O=P([O-])([O-])[O-].[Lu+3] [lutetium phosphate],molar entropy,6 K,0.012 ± 0.015 J/K/mol
same,molar entropy,8 K,0.0284 ± 0.015 J/K/mol
same,molar entropy,10 K,0.0553 ± 0.016 J/K/mol
same,molar entropy,12 K,0.095 ± 0.016 J/K/mol
same,molar entropy,14 K,0.152 ± 0.017 J/K/mol
same,molar entropy,16 K,0.226 ± 0.017 J/K/mol
same,molar entropy,18 K,0.322 ± 0.018 J/K/mol
same,molar entropy,20 K,0.441 ± 0.019 J/K/mol
same,molar entropy,25 K,0.858 ± 0.021 J/K/mol
same,molar entropy,30 K,1.47 ± 0.06 J/K/mol
same,molar entropy,35 K,2.28 ± 0.07 J/K/mol
same,molar entropy,40 K,3.29 ± 0.07 J/K/mol
same,molar entropy,45 K,4.48 ± 0.07 J/K/mol
same,molar entropy,50 K,5.82 ± 0.08 J/K/mol
same,molar entropy,55 K,7.3 ± 0.08 J/K/mol
same,molar entropy,60 K,8.89 ± 0.09 J/K/mol
same,molar entropy,65 K,10.58 ± 0.09 J/K/mol
same,molar entropy,70 K,12.33 ± 0.1 J/K/mol
same,molar entropy,75 K,14.15 ± 0.1 J/K/mol
same,molar entropy,80 K,16.02 ± 0.11 J/K/mol
same,molar entropy,85 K,17.93 ± 0.11 J/K/mol
same,molar entropy,90 K,19.88 ± 0.33 J/K/mol
same,molar entropy,95 K,21.85 ± 0.33 J/K/mol
same,molar entropy,100 K,23.84 ± 0.34 J/K/mol
same,molar entropy,110 K,27.89 ± 0.34 J/K/mol
same,molar entropy,120 K,31.97 ± 0.35 J/K/mol
same,molar entropy,130 K,36.07 ± 0.35 J/K/mol
same,molar entropy,140 K,40.18 ± 0.36 J/K/mol
same,molar entropy,150 K,44.27 ± 0.37 J/K/mol
same,molar entropy,160 K,48.34 ± 0.37 J/K/mol
same,molar entropy,170 K,52.38 ± 0.38 J/K/mol
same,molar entropy,180 K,56.34 ± 0.38 J/K/mol
same,molar entropy,190 K,60.33 ± 0.39 J/K/mol
same,molar entropy,200 K,64.24 ± 0.4 J/K/mol
same,molar entropy,210 K,68.09 ± 0.4 J/K/mol
same,molar entropy,220 K,71.89 ± 0.41 J/K/mol
same,molar entropy,230 K,75.64 ± 0.41 J/K/mol
same,molar entropy,240 K,79.34 ± 0.42 J/K/mol
same,molar entropy,250 K,82.98 ± 0.42 J/K/mol
same,molar entropy,260 K,86.56 ± 0.43 J/K/mol
same,molar entropy,270 K,90.09 ± 0.44 J/K/mol
same,molar entropy,280 K,93.57 ± 0.44 J/K/mol
same,molar entropy,290 K,96.99 ± 0.45 J/K/mol
same,molar entropy,300 K,100.4 ± 0.5 J/K/mol
same,molar entropy,310 K,103.7 ± 0.5 J/K/mol
same,molar entropy,320 K,106.9 ± 0.5 J/K/mol
